Measurements: patent US10172355B2, “Safened herbicidal compositions including 4-amino-3-chloro-5-fluoro-6-(4-chloro-2-fluoro-3-methoxyphenyl)pyridine-2-carboxylic acid or a derivative thereof for use in rice” (Dow AgroSciences LLC, priority 2012, dated 2019)
Where two headings read alike, the source gives them in different places.

Experiments:
ORYSA=Orysa sativa, Rice = assay: Postemergence foliar-applied herbicides and safeners in direct-seeded rice, visual injury; type: in vivo; settings: foliar; for Visual Injury (%) - 21 DAA ORYSA-‘Clearfield 171’ Obs / Visual Injury (%) - 21 DAA ORYSA-‘Neptune’ Obs / Visual Injury (%) - 21 DAA ORYSA-‘Wells’ Obs: Tables 1,2,7,8; for Visual crop injury (%) at 140 g/ha / Visual crop injury (%) at 280 g/ha: Oryza sativa, 480 h, read-out: Visual Injury (%) - 20 DAA ORYSA-‘Clearfield 171’ Obs
From the text: (§1) Seeds or nutlets of the desired test plant species were planted in a soil matrix prepared by mixing a loam or sandy loam soil (e.g., 28.6 percent silt, 18.8 percent clay, and 52.6 percent sand, with a pH of about 5.8 and an organic matter content of about 1.8 percent) and calcareous grit in an 80 to 20 ratio. The soil matrix was contained in plastic pots with a surface area of 84.6 square centimeters (cm^2). When required to ensure good germination and healthy plants, a fungicide treatment and/or other chemical or physical treatment was applied. The plants were grown for 8-22 days in a greenhouse with an approximate 14 hr photoperiod which was maintained at about 29° C. during the day and 26° C. during the night. Nutrients (Peters Excel 15-5-15 5-Ca 2-Mg and iron chelate) were applied in the irrigation solution as needed and water was added on a regular basis. Supplemental lighting was provided with overhead metal halide 1000-Watt lamps as necessary. The plants were employed for testing when they reached the second or third true leaf stage.
(§2) Treatments consisted of the acid or esters of 4-amino-3-chloro-5-fluoro-6-(4-chloro-2-fluoro-3-methoxy-phenyl)pyridine-2-carboxylic acid (compound A) and various safener components alone and in combination. Forms of compound A were applied on an acid equivalent basis. Safener components were applied on an active ingredient or acid equivalent basis depending on the compound.
(§3) Treatment requirements were calculated based upon the rates being tested, the concentration of active ingredient or acid equivalent in the formulation, and a 12 mL application volume at a rate of 187 L/ha.
(§4) For treatments comprised of formulated compounds, measured amounts of compounds were placed individually in 25 mL glass vials and diluted in a volume of 1.25% (v/v) Agri-dex crop oil concentrated to obtain 12× stock solutions. […] Application solutions were prepared by adding an appropriate amount of each stock solution (e.g., 1 mL) and diluted to the appropriate final concentrations with the addition of 10 mL of an aqueous mixture of 1.25% (v/v) Agri-dex crop oil concentrate so that the final spray solutions contained 1.25% (v/v) Agri-dex crop oil concentrate.
(§5) For treatments comprised of technical compounds, weighed amounts were placed individually in 25 mL glass vials and dissolved in a volume of 97:3 v/v acetone/DMSO to obtain 12× stock solutions. […] Application solutions were prepared by adding an appropriate amount of each stock solution (e.g., 1 mL) and diluted to the appropriate final concentrations with the addition of 10 mL of an aqueous mixture of 1.5% (v/v) Agri-dex crop oil concentrate so that the final spray solutions contained 1.25% (v/v) Agri-dex crop oil concentrate. When technical materials were used, the concentrated stock solutions were added to the spray solutions so that the final acetone and DMSO concentrations of the application solutions were […], respectively.
(§6) For treatments comprised of formulated and technical compounds, weighed amounts of the technical materials were placed individually in 25 mL glass vials and dissolved in a volume of 97:3 v/v acetone/DMSO to obtain 12× stock solutions, and measured amounts of the formulated compounds were placed individually in 25 mL glass vials and diluted in a volume of 1.5% (v/v) Agri-dex crop oil concentrate or water to obtain 12× stock solutions. […] Application solutions were prepared by adding an appropriate amount of each stock solution (e.g., 1 mL) and diluted to the appropriate final concentrations with the addition of an appropriate amount of an aqueous mixture of 1.5% (v/v) Agri-dex crop oil concentrate so that the final spray solutions contained 1.25% (v/v) Agri-dex crop oil concentrate. When required, additional water and/or 97:3 v/v acetone/DMSO was added to individual application solutions so that the final acetone and DMSO concentrations of the application solutions being compared were 8.1% and 0.25%, respectively. […]

[1] = system: ECHCG=Echinochloa crus-galli; assay: Postemergence foliar-applied herbicides and safeners, visual injury of weed; type: in vivo; settings: foliar; for pest or weed control at 280 g/ha / pest or weed control at 140 g/ha: Echinochloa crus-galli, 480 h, read-out: Visual Injury (%) - 20 DAA ECHCG Obs
From the text: as §1, §2, §3, §4, §5, §6

[2] = safener 280 g ai/ha alone, trial of Tables 3,4,6,10,12,14
[3] = safener 140 g ai/ha alone, trial of Tables 3,4,6,10,12,14
[4] = safener 280 g ai/ha alone, trial of Tables 5,9,11,13
[5] = safener 140 g ai/ha alone, trial of Tables 5,9,11,13

| Compound | Visual crop injury (%) at 140 g/ha (ORYSA=Orysa sativa, Rice; [3]) [%] | Visual crop injury (%) at 280 g/ha (ORYSA=Orysa sativa, Rice; [2]) [%] | Visual Injury (%) - 20 DAA ECHCG Obs [1, 2] [%] | pest or weed control at 140 g/ha [1, 5] [%] | pest or weed control at 280 g/ha [1, 4] [%] | Visual Injury (%) - 20 DAA ECHCG Obs [1, 3] [%] | Visual crop injury (%) at 140 g/ha (ORYSA=Orysa sativa, Rice; [5]) [%] | Visual crop injury (%) at 280 g/ha (ORYSA=Orysa sativa, Rice; [4]) [%] | also measured |
| --- | --- | --- | --- | --- | --- | --- | --- | --- | --- |
| CCCCCC(C)OC(=O)COc1ccc(Cl)c2cccnc12 (centres unmarked) [Cloquintocet-mexyl] |  |  |  |  |  |  |  |  | Visual Injury (%) - 21 DAA ORYSA-‘Clearfield 171’ Obs (ORYSA=Orysa sativa, Rice; safener 70 g ai/ha alone): 0%; Visual Injury (%) - 21 DAA ORYSA-‘Neptune’ Obs (ORYSA=Orysa sativa, Rice; safener 70 g ai/ha alone): 0%; Visual Injury (%) - 21 DAA ORYSA-‘Wells’ Obs (ORYSA=Orysa sativa, Rice; safener 70 g ai/ha alone): 0%; Visual Injury (%) - 21 DAA ORYSA-‘Clearfield 171’ Obs (ORYSA=Orysa sativa, Rice; safener 140 g ai/ha alone): 0%; Visual Injury (%) - 21 DAA ORYSA-‘Neptune’ Obs (ORYSA=Orysa sativa, Rice; safener 140 g ai/ha alone): 0%; Visual Injury (%) - 21 DAA ORYSA-‘Wells’ Obs (ORYSA=Orysa sativa, Rice; safener 140 g ai/ha alone): 0%; Visual Injury (%) - 21 DAA ORYSA-‘Neptune’ Obs (ORYSA=Orysa sativa, Rice; safener 280 g ai/ha alone): 0%; Visual Injury (%) - 21 DAA ORYSA-‘Wells’ Obs (ORYSA=Orysa sativa, Rice; safener 280 g ai/ha alone): 0% |
| Cc1ccc(NC(=O)NC(C)(C)c2ccccc2)cc1 [Daimuron, N-(4-methylphenyl)-N′-(1-methyl-1-phenylethyl)-urea] |  |  |  |  |  |  |  |  | Visual Injury (%) - 21 DAA ORYSA-‘Clearfield 171’ Obs (ORYSA=Orysa sativa, Rice; safener 70 g ai/ha alone): 0%; Visual Injury (%) - 21 DAA ORYSA-‘Neptune’ Obs (ORYSA=Orysa sativa, Rice; safener 70 g ai/ha alone): 0%; Visual Injury (%) - 21 DAA ORYSA-‘Wells’ Obs (ORYSA=Orysa sativa, Rice; safener 70 g ai/ha alone): 0%; Visual Injury (%) - 21 DAA ORYSA-‘Clearfield 171’ Obs (ORYSA=Orysa sativa, Rice; safener 140 g ai/ha alone): 0%; Visual Injury (%) - 21 DAA ORYSA-‘Neptune’ Obs (ORYSA=Orysa sativa, Rice; safener 140 g ai/ha alone): 0%; Visual Injury (%) - 21 DAA ORYSA-‘Wells’ Obs (ORYSA=Orysa sativa, Rice; safener 140 g ai/ha alone): 0%; Visual Injury (%) - 21 DAA ORYSA-‘Neptune’ Obs (ORYSA=Orysa sativa, Rice; safener 280 g ai/ha alone): 0%; Visual Injury (%) - 21 DAA ORYSA-‘Wells’ Obs (ORYSA=Orysa sativa, Rice; safener 280 g ai/ha alone): 0% |
| C=CCN(CC=C)C(=O)C(Cl)Cl [Dichlormid, N,N-diallyl-2,2-dichloroacetamide] | 0 | 0 |  |  |  |  |  |  | pest or weed control at 280 g/ha [1, 2]: 0% |
| CC1(C)CN2C(=O)CCC2(C)N(C(=O)C(Cl)Cl)C1 (centres unmarked) [Dicyclonon] |  |  | 0 |  |  |  |  |  | Visual Injury (%) - 20 DAA ECHCG Obs [1, 4]: 3%; Visual Injury (%) - 20 DAA ORYSA-‘Clearfield 171’ Obs (ORYSA=Orysa sativa, Rice; [3]): 0%; Visual Injury (%) - 20 DAA ORYSA-‘Clearfield 171’ Obs (ORYSA=Orysa sativa, Rice; [5]): 0%; Visual Injury (%) - 20 DAA ORYSA-‘Clearfield 171’ Obs (ORYSA=Orysa sativa, Rice; [2]): 3%; Visual Injury (%) - 20 DAA ORYSA-‘Clearfield 171’ Obs (ORYSA=Orysa sativa, Rice; [4]): 0% |
| CC(C)(SC(=O)N1CCCCC1)c1ccccc1 [Dimepiperate, S-(1-methyl-1-phenylethyl)1-piperidine-carbothioate, reference compound] | 7 | 3 |  |  |  |  |  |  | pest or weed control at 140 g/ha [1, 3]: 0%; pest or weed control at 280 g/ha [1, 2]: 0% |
| Clc1cc(Cl)nc(-c2ccccc2)n1 [Fenclorim, 4,6-dichloro-2-phenylpyrimidine, reference compound] | 0 | 0 | 0 | 0 | 0 | 0 | 0 | 0 |  |
| CC1(C)OC(c2ccco2)CN1C(=O)C(Cl)Cl (centres unmarked) [Furilazole, 3-(dichloroacetyl)-5-(2-furanyl)-2,2-dimethyl-oxazolidine, reference compound] | 7 | 18 | 0 | 0 | 0 | 0 | 0 | 0 |  |
| O=C1OC(=O)c2cccc3cccc1c23 [Naphthalic anhydride, 1H,3H-naphtho[1,8-cd]pyran-1,3-dione, reference compound] | 0 | 0 | 0 | 0 | 0 | 0 | 0 | 3 |  |
